Measured values published in the supplement of paper PMC10627819.

How the values were obtained:
S. pneumoniae D39V [1] = test: Bliss interaction score (quartile over a dose matrix) (fitness difference); higher = more antagonism (negative = synergy)
Method in brief: (§1)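 The Bliss score is observed minus expected fitness, where expected fitness is the product of the single-drug fitness values inferred from the combination data. Fitness is the OD595 at the onset of stationary phase over the plate's robust no-drug mean, capped at 1. Scores are summarised by quartiles over technical, biological and donor/recipient replicates.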

B. subtilis 168 [2] = test: as above
Method in brief: as §1

S. aureus DSM 20231 = test: as above
Method in brief: as §1

S. aureus Newman [3] = test: as above
Method in brief: as §1

S. pneumoniae D39V [4] = test: fitness (endpoint OD595 vs no drug) (fraction); higher = more growth
Method in brief: (§2)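 With the first reading as background, OD595 was measured every 30 min for 14 h in 384-well plates kept at 37 °C and inoculated at OD595 0.01. TSB, LB Lennox or CY was the medium. Fitness is the optical density at the transition into stationary phase divided by the robust mean of no-drug control wells, with a cap of 1.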

B. subtilis 168 [5] = test: as above
Method in brief: as §2

S. aureus Newman [6] = test: as above
Method in brief: as §2
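Throughout, for Bliss interaction score (quartile over a dose matrix): first quartile when negative (synergy) and third quartile when positive (antagonism).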
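Throughout, for fitness (endpoint OD595 vs no drug): OD595 on entry to stationary phase over no-drug wells; at most 1.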

CO/N=C(\C(=O)N[C@@H]1C(=O)N2C(C(=O)O)=C(COC(C)=O)CS[C@H]12)c1csc(N)n1 [Cefotaxime] + CN(C)c1cc(NC(=O)CNC(C)(C)C)c(O)c2c1C[C@H]1C[C@H]3[C@H](N(C)C)C(O)=C(C(N)=O)C(=O)[C@@]3(O)C(O)=C1C2=O [Tigecycline]
Conditions | Bliss interaction score
B. subtilis 168 [2] | 0.0544
S. aureus DSM 20231 | 0.0485
S. aureus Newman [3] | -0.0426
S. pneumoniae D39V [1] | -0.0363

Conditions | fitness
B. subtilis 168 [5], first compound 0.5 µg/mL, partner 0.039 µg/mL | 0.231
B. subtilis 168 [5], first compound 0.5 µg/mL, partner 0.078 µg/mL | 0.198
B. subtilis 168 [5], first compound 0.5 µg/mL, partner 0.156 µg/mL | 0.234
B. subtilis 168 [5], first compound 1 µg/mL, partner 0.039 µg/mL | 0.0778
B. subtilis 168 [5], first compound 1 µg/mL, partner 0.078 µg/mL | 0.092
B. subtilis 168 [5], first compound 1 µg/mL, partner 0.156 µg/mL | 0.109
B. subtilis 168 [5], first compound 2 µg/mL, partner 0.039 µg/mL | 0.0602
B. subtilis 168 [5], first compound 2 µg/mL, partner 0.078 µg/mL | 0.0925
B. subtilis 168 [5], first compound 2 µg/mL, partner 0.156 µg/mL | 0.101
S. aureus Newman [6], first compound 0.078 µg/mL, partner 0.039 µg/mL | 0.706
S. aureus Newman [6], first compound 0.078 µg/mL, partner 0.078 µg/mL | 0.777
S. aureus Newman [6], first compound 0.078 µg/mL, partner 0.156 µg/mL | 0.767
S. aureus Newman [6], first compound 0.156 µg/mL, partner 0.039 µg/mL | 0.655
S. aureus Newman [6], first compound 0.156 µg/mL, partner 0.078 µg/mL | 0.701
S. aureus Newman [6], first compound 0.156 µg/mL, partner 0.156 µg/mL | 0.714
S. aureus Newman [6], first compound 0.312 µg/mL, partner 0.039 µg/mL | 0.427
S. aureus Newman [6], first compound 0.312 µg/mL, partner 0.078 µg/mL | 0.434
S. aureus Newman [6], first compound 0.312 µg/mL, partner 0.156 µg/mL | 0.422
S. pneumoniae D39V [4], first compound 0.0018 µg/mL, partner 0.325 µg/mL | 0.978
S. pneumoniae D39V [4], first compound 0.0018 µg/mL, partner 0.65 µg/mL | 0.936
S. pneumoniae D39V [4], first compound 0.0018 µg/mL, partner 1.3 µg/mL | 0.993
S. pneumoniae D39V [4], first compound 0.0018 µg/mL, partner 2.6 µg/mL | 0.92
S. pneumoniae D39V [4], first compound 0.0035 µg/mL, partner 0.325 µg/mL | 0.957
S. pneumoniae D39V [4], first compound 0.0035 µg/mL, partner 0.65 µg/mL | 0.903
S. pneumoniae D39V [4], first compound 0.0035 µg/mL, partner 1.3 µg/mL | 0.954
S. pneumoniae D39V [4], first compound 0.0035 µg/mL, partner 2.6 µg/mL | 0.88
S. pneumoniae D39V [4], first compound 0.007 µg/mL, partner 0.325 µg/mL | 0.918
S. pneumoniae D39V [4], first compound 0.007 µg/mL, partner 0.65 µg/mL | 0.849
S. pneumoniae D39V [4], first compound 0.007 µg/mL, partner 1.3 µg/mL | 0.896
S. pneumoniae D39V [4], first compound 0.007 µg/mL, partner 2.6 µg/mL | 0.774

fitness, one replicate
Conditions | partner 0.039 µg/mL | partner 0.078 µg/mL | partner 0.125 µg/mL | partner 0.156 µg/mL | partner 0.25 µg/mL | partner 0.5 µg/mL
B. subtilis 168 [5], first compound 0.00775 µg/mL | 0.83 | 0.784 | – | 0.811 | – | –
B. subtilis 168 [5], first compound 0.0155 µg/mL | 0.696 | 0.677 | – | 0.621 | – | –
B. subtilis 168 [5], first compound 0.031 µg/mL | 0.476 | 0.528 | – | 0.589 | – | –
B. subtilis 168 [5], first compound 0.0625 µg/mL | – | – | 0.623 | – | 0.513 | 0.573
B. subtilis 168 [5], first compound 0.125 µg/mL | – | – | 0.457 | – | 0.4 | 0.406
B. subtilis 168 [5], first compound 0.25 µg/mL | – | – | 0.307 | – | 0.237 | 0.252
S. aureus Newman [6], first compound 0.039 µg/mL | 0.709 | 0.781 | – | 0.776 | – | –
S. aureus Newman [6], first compound 0.625 µg/mL | 0.0125 | 0.0197 | – | 0.0212 | – | –
S. aureus Newman [6], first compound 1.25 µg/mL | 0.0613 | 0.0298 | – | 0.023 | – | –
S. aureus Newman [6], first compound 2.5 µg/mL | 0.0425 | 0.0445 | – | 0.0375 | – | –

CO/N=C(\C(=O)N[C@@H]1C(=O)N2C(C(=O)O)=C(COC(C)=O)CS[C@H]12)c1csc(N)n1 [Cefotaxime] + CN[C@@H]1[C@H](O[C@H]2[C@H](O[C@H]3[C@H](O)[C@@H](O)[C@H](N=C(N)N)[C@@H](O)[C@@H]3N=C(N)N)O[C@@H](C)[C@]2(O)C=O)O[C@@H](CO)[C@H](O)[C@H]1O [Streptomycin]
Conditions | Bliss interaction score
B. subtilis 168 [2] | -0.105
S. aureus DSM 20231 | -0.0464
S. aureus Newman [3] | -0.0376
S. pneumoniae D39V [1] | 0.0714

fitness
Conditions | partner 1 µg/mL | partner 2 µg/mL | partner 4 µg/mL | partner 8 µg/mL
B. subtilis 168 [5], first compound 0.5 µg/mL | – | 0.0795 | 0.043 | 0.0401
B. subtilis 168 [5], first compound 1 µg/mL | – | 0.0611 | 0.0445 | 0.0309
B. subtilis 168 [5], first compound 2 µg/mL | – | 0.061 | 0.048 | 0.0478
S. aureus Newman [6], first compound 0.078 µg/mL | 0.761 | 0.757 | 0.72 | –
S. aureus Newman [6], first compound 0.156 µg/mL | 0.589 | 0.589 | 0.474 | –
S. aureus Newman [6], first compound 0.312 µg/mL | 0.382 | 0.29 | 0.155 | –
S. aureus Newman [6], first compound 0.625 µg/mL | 0.114 | 0.0719 | 0.0326 | –
S. aureus Newman [6], first compound 1.25 µg/mL | 0.0262 | 0.0178 | 0.0244 | –
S. aureus Newman [6], first compound 2.5 µg/mL | 0.0379 | 0.0307 | 0.0187 | –
S. pneumoniae D39V [4], first compound 0.0018 µg/mL | – | 0.966 | 0.996 | 0.964
S. pneumoniae D39V [4], first compound 0.0035 µg/mL | – | 0.945 | 0.974 | 0.963
S. pneumoniae D39V [4], first compound 0.007 µg/mL | – | 0.787 | 0.822 | 0.846

fitness, one replicate
Conditions | first compound 0.0018 µg/mL | first compound 0.0035 µg/mL | first compound 0.007 µg/mL | first compound 0.00775 µg/mL | first compound 0.0155 µg/mL | first compound 0.031 µg/mL
B. subtilis 168 [5], partner 2 µg/mL | – | – | – | 0.784 | 0.492 | 0.414
B. subtilis 168 [5], partner 4 µg/mL | – | – | – | 0.0757 | 0.0218 | 0.0306
B. subtilis 168 [5], partner 8 µg/mL | – | – | – | 0.0214 | 0.0302 | 0.0308
S. pneumoniae D39V [4], partner 16 µg/mL | 0.92 | 0.881 | 0.654 | – | – | –
